Reference: patent publication US8088777B2, “Urea derivative” (Shionogi & Co., Ltd., priority 2006, dated 2012)

Target: T1, human NPY Y5 receptor (Homo sapiens, UniProt Q15761)
T1 construct: expressed in transfected cells; membranes used
T1 sequence (Q15761 1-445): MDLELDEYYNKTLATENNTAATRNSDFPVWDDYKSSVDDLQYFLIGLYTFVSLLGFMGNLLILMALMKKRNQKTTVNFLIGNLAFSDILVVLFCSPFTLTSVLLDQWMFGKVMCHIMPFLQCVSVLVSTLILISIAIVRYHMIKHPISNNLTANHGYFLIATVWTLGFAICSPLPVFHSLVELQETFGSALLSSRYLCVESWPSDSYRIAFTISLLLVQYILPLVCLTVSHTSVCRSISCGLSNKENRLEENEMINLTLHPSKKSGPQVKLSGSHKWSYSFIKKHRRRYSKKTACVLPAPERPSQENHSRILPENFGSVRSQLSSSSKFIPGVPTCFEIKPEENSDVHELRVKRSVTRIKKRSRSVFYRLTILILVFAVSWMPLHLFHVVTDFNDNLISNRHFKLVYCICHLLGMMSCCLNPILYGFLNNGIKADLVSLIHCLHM
Experiment: Affinity for NPY Y5 receptor: inhibition of [125I] peptide YY binding to membranes of CHO cells expressing NPY Y5 receptor
Settings: [125I] peptide YY 60 pM, 25° C., 2 hours, read-out: 50% inhibitory concentration of the test compound against the specific peptide YY binding (IC50 value)
Text: cDNA sequence encoding a human NPY Y5 receptor (WO96/16542) was cloned in a vector pME18S (Takebe et al. Mol. Cell. Biol. 8, 8957). The obtained expression vector was transfected into CHO cells as a host by using Lipofect AMINE reagent (Trademark, Gibco BRL Co., Ltd.) according to the instruction […] manual. The cells that stably express NPY Y5 receptor were obtained.
The membranes prepared from the CHO cells expressing NPY Y5 receptor, the compound of the present invention and 30,000 cpm [^125I] peptide YY (60 pM of final concentration: Amersham) were incubated in the assay buffer (20 mM HEPES-Hanks buffer containing 0.1% bovine serum albumin, pH 7.4) at 25° C. for 2 hours, and then the membrane was collected by filtering the mixture through a glassfilter (GF/C) presoaked with 1% polyethyleneimine. After washing with 50 mM Tris-HCl buffer (pH 7.4), radioactivity retained on the filters was quantified with a gamma counter. Nonspecific binding was defined as the amount of radioactivity bound to the membranes after incubation in the presence of 200 nM of peptide YY. The 50% inhibitory concentration of the test compound against the specific peptide YY binding (IC50 value) was calculated (Inui, A. et al. Endocrinology 131, 2090-2096 (1992)).

Compound | IC50
CCS(=O)(=O)N(C)C1CCC(N(C)C(=O)Nc2ccc3c(c2)oc(=O)n3C(C)C)CC1 (stereo not drawn) [Example II-2] | 1.85 nM
CC(C)n1c(=O)oc2cc(NC(=O)N[C@H]3CC[C@H](NS(=O)(=O)C(C)(C)C)CC3)ccc21 [Example II-12] | 0.55 nM
CC(C)n1c(=O)oc2cc(NC(=O)N[C@H]3CC[C@H](NS(=O)(=O)C(C)C)CC3)ccc21 [Example II-14] | 0.32 nM
